Measurements taken from patent publication EP2845588A1, “PIN1 inhibitors for use in the prevention and/or treatment of theileriosis, and related applications” (Centre National de la Recherche Scientifique (CNRS), priority 2013, dated 2015).

Legend:
[1] = test system: TpPIN protein; experiment: Immunoblot of TpPIN protein in nuclear and cytoplasmic fractions of T. parva-infected cells; assay type: cell-based; conditions: nuclear and cytoplasmic fractions of T. parva-infected TpM409 B cells
Description: Cells were lysed in the following buffer: 5mM Tris HCL pH7.5, 40mM KCL, 2mM MgCL2, 0.5mM EDTA, 0.05mM Spermidine and Spermine, 0.1% NP-40, H2O. Lysates were incubated for 5min on ice and centrifuged for 10min at 5000rpm. The supernatant constitutes the Cytoplasmic fraction and the pellet constitutes the nuclear fraction.
Total proteins were extracted with Laemmli lysis, sonicated: 15 secs ON / 30 secs OFF for 5 min, resolved on 10.5% acrylamide/bis-acrylamide SDS-PAGE gels and transferred to nitrocellulose membranes (Thermo Fisher Scientific, MA, USA) in transfer buffer. Protein transfer was assessed by Ponceau-red staining. Membranes were blocked in Tris-buffered saline pH7.4 containing 0.1% Tween-20 and 5% milk for 1 h at room temperature. Incubations with primary antibodies were carried out at 4°C overnight using antibody dilutions as manufacturer recommendations in Trisbuffered saline pH7.4, 0.05% Tween-20 and 5% milk. Following 1 h incubation with an anti-rabbit or anti-mouse peroxidase-conjugated antibody (Sigma, St Louis, MO, USA) at room temperature, proteins were detected by chemiluminescence (Thermo Fisher Scientific, MA, USA) following the manufacturer's instructions. […]

[2] = test system: c-Jun and FBW7 ubiquitination in TBL3 cells; experiment: Ubiquitination of endogenous c-Jun and FBW7 in TBL3 cells; assay type: cell-based, bovine
[3] = target: T1, TaPIN WT (Theileria annulata, UniProt Q4UG71); experiment: CyclinD1-Luciferase reporter assay, TaPIN WT in TBL3 cells; assay type: cell-based, T. annulata; conditions: parasite-infected cells (TBL3)
T1 construct: expressed in transfected cells; host or cells: TBL3 (T. annulata-infected bovine B cells), electroporated with the pREV-HA-FLAG-RIL2 TaPIN plasmid
Description: Bovine cells were transfected with the 5xHRE (Staller et al., 2003) or CyclinD1- (Wulf et al., 2001) Luciferase reporters, using electroporation (Neon kit, Invitrogen, CA, USA). Mouse cells were transfected using Lipofectamine 2000 (Invitrogen, CA, USA). Transfections efficiencies were normalized to Renilla activity by co-transfection of a pRL-TK Renilla reporter plasmid (Promega, Ref.: E6241). Luciferase assays were performed 36h post-transfection using the Dual-Luciferase Reporter Assay System (Promega, Ref: E1980) in a microplate luminometer. Relative luminescence was represented as the ratio Firefly/Renilla luminescence, compared with the corresponding empty vector control. The 5xHRE promoter-Luciferase construct was obtained from P Staller (Biotech Research & Innovation Centre, Copenhagen, […]).

T1 sequence (Q4UG71 33-142): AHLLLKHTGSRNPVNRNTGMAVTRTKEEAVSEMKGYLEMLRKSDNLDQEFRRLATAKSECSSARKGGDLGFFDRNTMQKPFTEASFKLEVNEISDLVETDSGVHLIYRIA

## CC(C)(C)C1CCC(CC2=C(O)C(=O)c3ccccc3C2=O)CC1 (stereo not shown) [Buparvaquone, 2-((4-tert-butylcyclohexyl)methyl)-3-hydroxy-1,4-naphthoquinone]
[1]
  TpPIN protein: decreased
[2]; TBL3 cells
  ubiquitination of endogenous c-Jun protein: elevated
[2]; TBL3 cells overexpressing TaPIN A53P
  rescue of the drug effect on c-Jun ubiquitination by overexpressing the TaPIN A53P mutant: rescued
[3]
  CyclinD1 promoter activation by TaPIN WT: reversed
